Test results taken from ChEMBL document CHEMBL2094269, “WEHI/Eskitis Trypanosoma b. brucei screening data”.
Values joined by “and” are separate entries in the source; they are usually repeats but may differ in a detail not shown here. Equal entries are not always repeated.

Experiments:
[1] = DNDI: Cytotoxicity against human MRC-5 lung fibroblast cells.; settings: IC50
[2] = system: Trypanosoma brucei brucei; experiment: microbe, parasite or virus in culture; assay type: functional, organism-based, STIB 795
Description: DNDI: Inhibition of Human African Trypanosomiasis (HAT), STIB 795, in vitro

`CCOc1ccc(OCc2ccc(C(=O)N3CCCC(C)C3)cc2)cc1` (stereo not drawn) showed an IC50 [1] greater than 41.7 µM and an IC50 ([2]; Trypanosoma brucei, STIB 795) of 2.56 µM.
In the case of `COc1ccc(-c2cc(-c3ccccc3)c(C#N)c([S+](C)[O-])n2)cc1` (stereo not drawn), the IC50 [1] is reported as greater than 41.7 µM and the IC50 ([2]; Trypanosoma brucei, STIB 795) is reported as 0.206 µM.
Compound `CN(C)CCNC(=O)c1ccc(COc2ccc(Cl)cc2Cl)cc1` has an IC50 [1] greater than 20.8 µM and an IC50 ([2]; Trypanosoma brucei, STIB 795) of 3.41 µM.
With `Cc1ccc(C23CC4CC(CC(NC(=O)NCCN(C)C)(C4)C2)C3)cc1` the IC50 [1] was greater than 20.8 µM and the IC50 ([2]; Trypanosoma brucei, STIB 795) was 4.01 µM.
`COc1ccc(C(=O)O/N=C(\N)c2ccc(OC)c(OC)c2)c(OC)c1` gave an IC50 [1] greater than 41.7 µM and an IC50 ([2]; Trypanosoma brucei, STIB 795) of 1.33 µM.
With `Cc1cc(C)nc(C(=N)Nc2nc(-c3ccccn3)cc3ccccc23)n1` the IC50 [1] was 0.216 µM and the IC50 ([2]; Trypanosoma brucei, STIB 795) was 0.245 µM.
Compound `COc1ccc2[nH]c(C)c(CCNCc3cn(C)c4ccccc34)c2c1` has an IC50 [1] greater than 20.8 µM and an IC50 ([2]; Trypanosoma brucei, STIB 795) of 4.74 µM.
Work on `N=c1n(CCO)c2ccccc2n1CCOc1ccc(Cl)cc1Cl` yielded an IC50 [1] of 8.93 µM and an IC50 ([2]; Trypanosoma brucei, STIB 795) of 2.63 µM.
In the case of `Cc1ccccc1Cn1c(=N)n(CC(O)c2ccco2)c2ccccc21` (stereo not drawn), the IC50 [1] is reported as greater than 20.8 µM and the IC50 ([2]; Trypanosoma brucei, STIB 795) is reported as 5.25 µM.
In the case of `CCOc1c(Cl)cc(CNCCc2c[nH]c3ccccc23)cc1OC`, the IC50 [1] is reported as greater than 41.7 µM and the IC50 ([2]; Trypanosoma brucei, STIB 795) is reported as 5.09 µM.
Compound `N=c1n(CCc2ccccc2)c2ccccc2n1Cc1ccccc1F` has an IC50 [1] greater than 20.8 µM and an IC50 ([2]; Trypanosoma brucei, STIB 795) of 5.49 µM.
For `COc1ccccc1-c1nc(SCC(=O)c2ccc(O)c(O)c2)n[nH]1`, the IC50 [1] was greater than 41.7 µM and the IC50 ([2]; Trypanosoma brucei, STIB 795) was 2.69 µM.
With `COc1cc(CNCCO)cc(Br)c1OCc1ccccc1` the IC50 [1] was greater than 41.7 µM and the IC50 ([2]; Trypanosoma brucei, STIB 795) was 4.73 µM.
Compound `COC(=O)c1nc(-c2ccccc2)nc(-c2ccccc2)c1C(=O)OC` has an IC50 [1] greater than 4.17 µM and an IC50 ([2]; Trypanosoma brucei, STIB 795) of 4.78 µM.
Work on `CC[n+]1c(/C=C/c2ccc(N(C)C)cc2)sc2cc(NC(C)=O)ccc21` yielded an IC50 [1] greater than 20.8 µM and an IC50 ([2]; Trypanosoma brucei, STIB 795) of 0.049 µM.
With `Cc1nnc(-c2ccccc2)c(=O)n1/N=C/c1c(O)ccc2ccccc12` the IC50 [1] was greater than 4.17 µM, the IC50 [2] was 6.05 µM and the IC50 ([2]; Trypanosoma brucei, STIB 795) was 6.25 µM.
With `Oc1c(C(c2ccccc2Cl)N2CCOCC2)ccc2cccnc12` (stereo not drawn) the IC50 [1] was greater than 20.8 µM and the IC50 ([2]; Trypanosoma brucei, STIB 795) was 5.59 µM.
With `CN1CCN(C2Cc3ccc(F)cc3Sc3ccc(O)cc32)CC1` (stereo not drawn) the IC50 [1] was greater than 41.7 µM and the IC50 ([2]; Trypanosoma brucei, STIB 795) was 2.61 µM.
With `O=C(c1ccc(F)cc1)C(CSc1ccc(F)cc1)n1cncn1` (stereo not drawn) the IC50 [1] was greater than 41.7 µM and the IC50 ([2]; Trypanosoma brucei, STIB 795) was 4.92 µM.
In the case of `Cc1cc(C)nc(NC(c2ccco2)c2ccc3cccnc3c2O)n1` (stereo not drawn), the IC50 [1] is reported as greater than 41.7 µM and the IC50 ([2]; Trypanosoma brucei, STIB 795) is reported as 5.39 µM.
With `CCCOc1ccc(C(=O)Nc2ccc(Cc3ccncc3)cc2)cc1` the IC50 [1] was 4.61 µM and the IC50 ([2]; Trypanosoma brucei, STIB 795) was 1.23 µM.
`O=C(CN1CCN(c2ccc(Cl)cc2)CC1)c1ccc(O)c(O)c1` gave an IC50 [1] greater than 41.7 µM and an IC50 ([2]; Trypanosoma brucei, STIB 795) of 3.04 µM.
In the case of `O=C(CC(SCc1ccco1)c1ccc(Cl)cc1)c1ccco1` (stereo not drawn), the IC50 [1] is reported as greater than 41.7 µM and the IC50 [2] is reported as 5.16 µM and > 10.4 µM.
`CC1(C)CC(NC2=C(Cl)C(=O)c3ccccc3C2=O)CC(C)(C)N1` gave an IC50 [1] of 5.07 µM and an IC50 ([2]; Trypanosoma brucei, STIB 795) of 1.79 µM.
Compound `CN(C)CCCNc1nn2c(=O)c3ccccc3nc2c2ccccc12` has an IC50 [1] greater than 4.17 µM and an IC50 ([2]; Trypanosoma brucei, STIB 795) of 5.39 µM.
`CCCCc1ccc(NC(=S)NC2CC(C)(C)NC(C)(C)C2)cc1` gave an IC50 [1] greater than 20.8 µM and an IC50 ([2]; Trypanosoma brucei, STIB 795) of 2.74 µM.
`CN(C)CCCC1c2ccccc2Sc2ccc(Cl)cc2C1O` (stereo not drawn) gave an IC50 [1] greater than 20.8 µM and an IC50 ([2]; Trypanosoma brucei, STIB 795) of 5.87 µM.
Work on `O=C(CSc1cccc2cccnc12)c1ccc(Cl)cc1Cl` yielded an IC50 [1] greater than 41.7 µM and an IC50 ([2]; Trypanosoma brucei, STIB 795) of 1.4 µM.
For `O=C(NCCc1nc(-c2ccccc2)cs1)C1(c2ccccc2)CC1`, the IC50 [1] was greater than 41.7 µM, the IC50 [2] was 4.88 µM and the IC50 ([2]; Trypanosoma brucei, STIB 795) was 5.81 µM.
With `COc1ccc(C(=O)O/N=C(\N)Cc2ccc(Cl)cc2)c(OC)c1` the IC50 [1] was greater than 20.8 µM and the IC50 ([2]; Trypanosoma brucei, STIB 795) was 0.104 µM.
Work on `CCOC(=O)C1CCCN(Cc2cc(Cl)c3cccnc3c2O)C1` (stereo not drawn) yielded an IC50 [1] greater than 4.17 µM and an IC50 ([2]; Trypanosoma brucei, STIB 795) of 5.09 µM.
With `CC1(C)CC(=O)C/C(=N\NC(=O)c2sc3ccccc3c2Cl)C1` the IC50 [1] was greater than 41.7 µM and the IC50 ([2]; Trypanosoma brucei, STIB 795) was 2.2 µM.
For `COC(=O)c1ccccc1OCCCON1C(N)=NC(N)=NC1(C)C`, the IC50 [1] was greater than 0.42 µM and the IC50 ([2]; Trypanosoma brucei, STIB 795) was 0.351 µM.
In the case of `C=CCn1c(-c2cccs2)nn(C2CC(=O)C3OCC2O3)c1=S` (stereo not drawn), the IC50 [1] is reported as greater than 20.8 µM, the IC50 [2] is reported as 4.4 µM and the IC50 ([2]; Trypanosoma brucei, STIB 795) is reported as 4.75 µM.
`CCN(CC)c1ccc(/C=N/NC(=O)c2nn(C)cc2Cl)c(O)c1` showed an IC50 [1] greater than 41.7 µM and an IC50 ([2]; Trypanosoma brucei, STIB 795) of 1.44 µM.
Work on `Clc1ccc(C(OCC2CCCCN2)c2ccc(Cl)cc2)cc1` (stereo not drawn) yielded an IC50 [1] greater than 4.17 µM and an IC50 ([2]; Trypanosoma brucei, STIB 795) of 2.78 µM.
With `Cc1nc2sccn2c1C(=O)N/N=C/c1c(O)ccc2ccccc12` the IC50 [1] was greater than 4.17 µM and the IC50 ([2]; Trypanosoma brucei, STIB 795) was 1.53 µM.
In the case of `CCOc1ccc(C2=CC(C(C(C)=O)C(C)=O)c3ccccc3O2)cc1` (stereo not drawn), the IC50 [1] is reported as greater than 41.7 µM and the IC50 ([2]; Trypanosoma brucei, STIB 795) is reported as 4.42 µM.
`COc1cc2nc(NC3CCCc4ccccc43)nc(N)c2cc1OC` (stereo not drawn) gave an IC50 [1] greater than 4.17 µM and an IC50 ([2]; Trypanosoma brucei, STIB 795) of 4.75 µM.
`CCC1CCCCN1S(=O)(=O)c1ccc(-c2ccno2)cc1OC` (stereo not drawn) showed an IC50 [1] greater than 41.7 µM and an IC50 ([2]; Trypanosoma brucei, STIB 795) of 2.73 µM.
Compound `CC(=O)NC1=C(Br)C(=O)c2cccc(NC(C)=O)c2C1=O` has an IC50 [1] of 7.49 µM and an IC50 ([2]; Trypanosoma brucei, STIB 795) of 1.15 µM.
With `Oc1c(C(Nc2nccs2)c2ccc(F)cc2)ccc2cccnc12` (stereo not drawn) the IC50 [1] was greater than 20.8 µM and the IC50 [2] was 2.37 µM and > 10.4 µM.
`NC1=NC(CCc2ccccc2)N(OCCCc2ccccc2)C(N)=N1` (stereo not drawn) gave an IC50 [1] greater than 4.17 µM and an IC50 ([2]; Trypanosoma brucei, STIB 795) of no more than 2.78 µM.
`CC(NCCC(c1ccccc1)C1CCOC(C)(C)C1)c1ccccc1` (stereo not drawn) gave an IC50 [1] greater than 41.7 µM and an IC50 ([2]; Trypanosoma brucei, STIB 795) of 4.93 µM.
`CC(C)(C)n1ncc(SC/C(=N\O)c2ccccc2)c(Cl)c1=O` gave an IC50 [1] greater than 41.7 µM and an IC50 ([2]; Trypanosoma brucei, STIB 795) of 2.37 µM.
